Measurements published in patent US9254266B2, “Inhibiting surface enhanced crystallization of amorphous pharmaceuticals with ultrathin coatings” (Wisconsin Alumni Research Foundation, priority 2007, dated 2016).
Values after ≈ are worked out from the molar mass of the structure shown.

Legend:
Assay type in all cases: physicochemical
[1] = Intrinsic dissolution rate (IDR), USP Dissolution Apparatus II; settings: 0.1 M phosphate buffer pH 7.2, 37° C.; for IDR: 50 RPM, first 15 minutes, no storage
Method: Measurement of intrinsic dissolution rate (IDR). The IDR was measured using a USP Dissolution Apparatus II (rotating paddle, model RC-8D, Vanguard, Spring, Tex.) following standard procedures. […] Tablets without visible chipping or surface imperfection were used for dissolution measurement. Each tablet used for IDR measurement was coated on one side and around the rim with water-impervious shellac (clear nail polish) that contained as the primary ingredient tosylamide epoxy resin. Conditions of the IDR measurement were as follows: 500 ml of 0.1 M phosphate buffer (pH 7.2), 50 RPM of paddle speed, 1 inch between the tablet and the paddle, and 37° C. Samples were taken every 2.5 minutes up to 15 minutes, every 5 minutes up to 30 minutes, and every 10 minutes up to 60 minutes. Each sample (2 ml) of the solution was drawn with a syringe and filtered through a 0.22-μm filter needle. The sample's concentration was determined by UV-visible spectrometry at 318 nm. The analyzed solution was returned to the dissolution vessel to maintain the constant volume. For each amorphous IMC material studied (with and without coating, with and without aging), the IDR measurement was performed six times with three independently prepared materials as described above.
As shown above in FIG. 4, because one layer of PDDA was nearly as effective as several layers of PDDA and PSS in inhibiting surface crystallization, this example used materials coated with a single layer of PDDA. Moreover, thinner coatings are expected to maximize the rate of dissolution. […] For comparison, the IDR of γ IMC was also measured. Each data point in FIG. 8 is the average of six measurements. For each sample of amorphous IMC (uncoated or coated), the six measurements were performed with three independently prepared materials (including melting, grinding, coating, and tableting). […] Similarly, it is assumed that the IDR of amorphous IMC was measured under a sink condition.

[2] = Water contact angle on amorphous IMC film; settings: 22° C., 70% R.H.
Method: Contact Angle Measurements. The measurements were performed at 22° C. and 70% R.H. using a method similar to that of Zografi and Tam. […] The water droplet thus formed was about 3 mm in diameter. A side view of the droplet was recorded with a digital camera and the contact angle was measured from the image (Image J1.34 S). Each amorphous film was measured three times at different sites. Three samples were measured for each coating condition.
The water contact angle characterizes the wetting ability of the surface. The measurement was performed with amorphous IMC films on microscope cover glasses. […] The contact angle increased and decreased accordingly with additional layers of PDDA and PSS.

[3] = Crystallization of amorphous IMC powder on storage (XRPD, DSC)
Method: The particles were sieved through to a 75 μm screen, transferred to a 200 ml beaker containing 100 ml of the PDDA solution, and kept in contact with the solution for 15 minutes. The suspension was filtered through #2 Whatman filter paper to remove the supernatant and washed with Milli-Q water. Vacuum was then applied to dry the particles for at least 3 hrs.
X-ray powder diffraction (XRPD). XRPD was performed with a Bruker D8 Advance X-ray diffractometer, which was equipped with a CuKα source (λ=1.54056 Å) operating at a tube load of 40 kV and 40 mA. The divergence slit size was 1 mm, the receiving slit, 1 mm, and the detector slit, 0.1 mm. Data was collected by a high-resolution Sol-X detector. Each sample was scanned between 2 and 40° (2θ) with a step size of 0.02° and a maximum scan rate of 3 s/step. The NIST standard SRM 1976 was used to check the instrument's calibration and performance. Samples of small quantities were analyzed on a Si(510) zero-background holder. Polarized light microscopy (PLM) was performed with a Nikon Optiphot Pol 2 microscope equipped with an Olympus video camera. The video image was calibrated against a 1-mm stage micrometer (100 divisions). Differential scanning calorimetry (DSC) was conducted in crimped Al pans using a TA Instruments Q1000 unit under 50 mL/min N2 purge.
The larger the exotherm, the greater the amorphous fraction before DSC analysis. […]

[4] = Zeta potential of IMC particles; settings: particles suspended in 0.01 M NaCl
Method: Zeta potentials were measured with a ZetaSizer 3000HSA (Malvern Instruments, USA). Sample particles (ca. 5 mg) were dispersed in 0.01 M NaCl. […] Each reported result was the average of three measurements.
Before coating amorphous IMC by this method, the sign of its surface charge in a coating solution was determined. […] (The pH of the coating solutions was 6.1 (PDDA) and 6.4 (PSS)). […] Coating with one layer of PDDA reversed the surface charge to positive (ζ-potential=+37 mV); adding the next layer (PSS) reversed the surface charge to negative again (ζ-potential=−32 mV); and so on.

[5] = Flowability measurements and tablet properties of IMC powder
Method: Flowability measurements. […] To determine tapped density and compressibility, approximately 1.5 g of powder was poured into a 10-ml cylinder. The initial volume (V0) yielded the initial bulk density D0 (“fluff or poured bulk density”). The powder was then tapped for 5 minutes to obtain the final bulk volume (Vf) and the final bulk density Df (“equilibrium, tapped or consolidated bulk density”). The percent (%) compressibility (Carr's Index) was calculated from (Df−D0)/Df×100, which is another measure of powder flowability (% compressibility higher than 40% is thought to indicate a non-flowing, cohesive powder; % compressibility lower than 28% is thought to indicate a fluid to free-flowing powder).
Uncoated amorphous IMC powder was cohesive and flowed with difficulty, while the coated powder flowed more easily. For the uncoated powder, the angle of repose was 36°, signifying acceptable flowability.

[6] = Surface crystallization and crystal growth of amorphous IMC films (light microscopy)
Method: Deposition of gold coatings. A Denton Vacuum Desk II (Denton Vacuum, Moorestown, N.J.) was used to deposit a gold coating on amorphous IMC. […] Under these conditions, the deposition rate was ca. 10 nm/30 s, providing a gold coating of about 10 nm in thickness. […] The coated film was golden and reflective. Deposition of LbL polyelectrolyte coatings on amorphous films. […] (Tg−20° C.), and gently removing one cover glass. To coat several films at once, they were loaded into a Teflon rack and immersed into the PDDA solution for 15 minutes. The samples were washed twice in Milli-Q water to remove the excess PDDA and immersed in the PSS solution. This procedure was repeated until the desired number of polymer layers was reached. The coated samples were left on a Whatman filter paper to remove the excess liquid on the slide and dried in a vacuum (0.4 mTorr) at 22° C. for 3 hrs. X-ray powder diffraction (XRPD). XRPD was performed with a Bruker D8 Advance X-ray diffractometer, which was equipped with a CuKα source (λ=1.54056 Å) operating at a tube load of 40 kV and 40 mA. The divergence slit size was 1 mm, the receiving slit, 1 mm, and the detector slit, 0.1 mm. Data was collected by a high-resolution Sol-X detector. Each sample was scanned between 2 and 40° (2θ) with a step size of 0.02° and a maximum scan rate of 3 s/step. The NIST standard SRM 1976 was used to check the instrument's calibration and performance. Samples of small quantities were analyzed on a Si(510) zero-background holder. Polarized light microscopy (PLM) was performed with a Nikon Optiphot Pol 2 microscope equipped with an Olympus video camera. The video image was calibrated against a 1-mm stage micrometer (100 divisions). Differential scanning calorimetry (DSC) was conducted in crimped Al pans using a TA Instruments Q1000 unit under 50 mL/min N2 purge. […] (Tg−2° C.). […] The crystals were birefringent. […] All samples were tested at 40° C. in a desiccator. […] Moreover, coating a partially crystallized sample with gold inhibited further crystallization. […] The set of experiments was again performed with amorphous IMC films prepared on microscope cover glasses. […] By contrast, only a small percentage of a coated surface was covered by crystals (white spots in the pictures) under the same conditions (FIG. 4b). Moreover, the crystals that did form on the coated surface grew much more slowly than those on the uncoated surface.

[7] = Solubility of γ IMC in buffer; settings: aqueous buffer, thermodynamic from solid; 0.1 M PBS buffer pH 7.2, 37° C.

time until tablet began crystallizing to α IMC in the dissolution medium [1]	IDR ([1]; listed as Uncoated)	IDR after 2 d ([1]; after 2 days of storage at 40° C.)	water contact angle [2]	solid state of powder after 2 days (PXRD) ([3]; 2 days at 40° C., powder sieved through 75 μm)	DSC crystallization exotherm after 2 days ([3]; 2 days of storage at 40° C.)	ζ-potential [4]	% Compressibility ([5]; Carr's Index, (Df−D0)/Df×100)	angle of repose ([5]; powder)	angle of repose ([5]; powder sieved through 75 μm screen)	Tapped Density ([5]; powder tapped for 5 minutes)	Tablet Bulk Density ([5]; tablets made with a Carver press)	Tablet Porosity ([5]; true density of 1.31 g/cm^3 used)	surface crystallization in vacuum compared with desiccated ambient air ([6]; 0.4 mTorr and 22° C.)	surface covered by crystals after 20 days ([6]; 15 μm films on cover glasses, 20 days at 40° C.)	crystallization of film between two cover glasses ([6]; below Tg (42° C.), no free surface)	appearance of crystals at free surface ([6]; one cover glass removed, 40° C.)	IDR [1]	solubility [7]	SMILES	coverage of free surface with crystals on storage ([6]; uncoated film, 40° C.)
approximately 20 minutes	0.56 mg/cm^2/min	0.10 mg/cm^2/min	44 °	crystallized into γ IMC	disappears	−41 mV	42 ± 1%	36 °	36.1 ± 2.3	0.52 ± 0.03 g/mL	1.07 ± 0.03 g/mL	18 ± 2%	same rate of crystal growth	completely covered with crystals	does not crystallize for months	crystals appear in days	–	–	COc1ccc2c(c1)c(CC(=O)O)c(C)n2C(=O)c1ccc(Cl)cc1 [amorphous IMC, 1-(p-chlorobenzoyl)-5-methoxy-2-methylindole-3-acetic acid]	After two or three weeks, the surface was fully covered with crystals
–	–	–	–	–	–	negatively charged	–	–	–	–	–	–	–	–	–	–	0.07 mg/cm^2/min	1500 µg/mL (≈ 4.19 mM)	COc1ccc2c(c1)c(CC(=O)O)c(C)n2C(=O)c1ccc(Cl)cc1 [γ IMC, 1-(p-chlorobenzoyl)-5-methoxy-2-methylindole-3-acetic acid]	–
